According to US20260008775A1, “AZOLE MODULATORS OF CHOLESTEROL BIOSYNTHESIS AND THEIR USE FOR PROMOTING REMYELINATION” (GENENTECH, INC., priority 2022, published 2026):

Key:
[1] = tested on: zymostenol accumulation (EBP) in EpiSC-derived OPCs; assay: GC/MS-based sterol profiling, zymostenol accumulation in EpiSC-derived OPCs; format: cell-based, mouse; conditions: for EC50: Mus musculus, 24 h, EpiSC-derived OPCs, 24 hr, 8 doses from 0.15 nM to 333 nM, read-out: Mouse Zymostenol GCMS EC50
Protocol: (§1) To assess effects of treatments on OPCs, all treatments were assayed in two or more independent platings of epiblast stem cell-derived OPCs (EpiSC). EpiSC-derived OPCs were obtained using in vitro differentiation protocols and culture conditions described previously (Najm et al, 2011, Nature Methods). OPCs were expanded and frozen down in aliquots. OPCs were thawed into growth conditions for at least one passage before use in further assays.
Sterols were monitored using a modified Folch wash protocol (Hubler et al, 2018, Nature). EpiSC-derived OPCs were plated at 100,000 cells per well in PO- and laminin-coated 96-well plates in N2B27 media without growth factors. After 24 hours, cells were rinsed with saline and plates were frozen. Cholesterol-d7 standard was then added to each well before drying under nitrogen stream and derivatization with 55 μl of bis(trimethylsilyl) trifluoroacetamide. After derivatization, 2 μl were analyzed by gas chromatography/mass spectrometry using an Agilent 5973 Network Mass Selective Detector equipped with a 6890 gas chromatograph system and a HP-5MS capillary column (30 m×0.25 mm×[…]). Samples were analyzed in full scan mode using electron impact ionization; ion fragment peaks were integrated to calculate sterol abundance, and quantitation was relative to cholesterol-d7. The following ion fragments were used to quantitate each metabolite: cholesterol-d7 (465), FF-Mas (482), cholesterol (368), zymostenol (458), zymosterol (456), Desmosterol (456, 343), 7-dehydrocholesterol (456, 325), lanosterol (393), lathosterol (458), 14-dehydrozymostenol (456, 351). […] All standards were obtained from Avanti Polar Lipids unless otherwise indicated. Calibration curves were generated by injecting varying concentrations of sterol standards and maintaining a fixed amount of cholesterol-D7. For normalized zymostenol accumulation results, the total amount of zymostenol measured after drug treatment was divided by the total amount of zymostenol accumulated after 24 hr treatment with 100 nM positive control reference.

EpiSC-derived OPCs = assay: In vitro phenotypic screening of OPCs, MBP high-content imaging (percentage of oligodendrocytes); format: cell-based, mouse; conditions: for EC50: Mus musculus, 72 h, 3 days, MBP stain, dose-response 0.5 nM to 1000 nM, read-out: OPC EC50
Protocol: as §1
EpiSC-derived OPCs were grown and expanded in poly-L-ornithine (PO) and laminin-coated flasks in N2B27 media (DMEM/F12 (Gibco), N2-MAX (R&D Systems), B-27 (ThermoFisher), and GlutaMax (Gibco)) supplemented with FGF2 (10 μg/mL, R&D systems, 233-FB-025) and PDGF-AA (10 μg/mL, R&D systems, 233-AA-050) before harvesting for experiments. The cells were seeded onto poly-L-ornithine or poly-D-lysine coated CellCarrier Ultra plates (PerkinElmer) coated with laminin (Sigma, L2020) at a density of 150,000/cm^2 in N2B27 media without growth factors. For dose-response testing, a 1000× compound stock in dimethyl sulphoxide (DMSO) was added to assay plates, resulting in 8-point dose curves with final concentrations between 1000 nM and 0.5 nM. Positive controls and DMSO vehicle controls were included in each assay plate. Cells were incubated under standard conditions (37° C., 5% CO2) for 3 days and fixed with 4% paraformaldehyde (PFA) in phosphate buffered saline (PBS) for 20 min. Fixed plates were washed with PBS, permeabilized with 0.1% Triton X-100, and blocked with 10% donkey serum (v/v) in PBS for 40 min. Then, cells were labelled with MBP antibodies (Abcam, ab7349; 1:200) for 2 h at room temperature, washed with PBS, and stained with Alexa Fluor conjugated secondary antibodies (1:500) for 45 min. Nuclei were visualized by DAPI staining (Sigma; […]), followed by further PBS washes.
Cells and cell culture plates were imaged on the Operetta High Content Imaging and Analysis system (PerkinElmer). Analysis (PerkinElmer Harmony and Columbus software) began by identifying intact nuclei stained by DAPI. The peri-nuclear region of each cell was then cross-referenced with the mature myelin protein (MBP) stain to identify oligodendrocyte nuclei, and from this the percentage of oligodendrocytes was calculated. EC50 values were calculated using The Levenberg-Marquardt algorithm to fit a Hill equation to dose-response data (0.5 nM to 1000 nM).

[2] = biological target: human emopamil binding protein and human 7-dehydrocholesterol reductase (hEBP-DHCR7) (Homo sapiens (Human), UniProt Q15125); assay: hEBP-DHCR7 radioligand binding assay (filter binding, membranes of co-expressing HEK293 cells); conditions: competition with [3H] radioligand, 8 doses 0.06 to 5000 nM, Ki calculated from IC50
Sequence of human emopamil binding protein and human 7-dehydrocholesterol reductase (hEBP-DHCR7) (Q15125 whole entry): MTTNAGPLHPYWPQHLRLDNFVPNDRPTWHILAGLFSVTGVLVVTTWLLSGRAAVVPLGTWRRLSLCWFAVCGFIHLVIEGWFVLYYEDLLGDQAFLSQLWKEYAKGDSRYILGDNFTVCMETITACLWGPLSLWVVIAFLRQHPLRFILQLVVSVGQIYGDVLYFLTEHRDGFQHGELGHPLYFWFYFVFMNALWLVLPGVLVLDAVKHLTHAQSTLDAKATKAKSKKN
Protocol: Membrane Preparation: human emopamil binding protein and human 7-dehydrocholesterol reductase co-expressing cells were generated by transient transfecting host human embryonic kidney (HEK) 293 cells with 2 DNA constructs containing each protein's coding sequence. Cells were suspension cultured at 37° C. with 5% CO2 in […] 293 Expression Medium (Thermofisher). Whole cell membrane was prepared by harvesting the cell pellet, adding cold membrane buffer (50 mM Tris, pH7.5, 1× Roche COMPLETE EDTA-free protease inhibitor cocktail) 10 times volume of the cell pellets weight, lysing cell pellet on ice by using Dounce homogenizer, spinning at 200 g 4° C. for 15 min, collecting supernatant and spinning again at 25000 g 4° C. for 50 min, transferring pellet to Dounce homogenizer, re-suspending pellet by homogenizing in membrane buffer on ice to reach ˜25 mg/mL, then keeping whole cell membrane aliquots at −80° C.
Compounds were prepared in a 96-well U bottom plate (Corning Cat #7007) using an Echo550 machine and 10 mM compound DMSO stock solution, followed by an 8-dose 5-fold serial dilutions protocol with final testing compound concentration ranging from 0.06 to 5000 nM, with DMSO back fill to 100 nL/well and n=2. […] The UniFilter-96 GF/B plates (PerkinElmer Cat #6005177) were pre-treated by adding 50 μl/well of 0.3% (v/v) Polyethylenimine (PEI) (branched, Sigma Cat #408727) to UniFilter-96 GF/B plates. The plates were sealed and incubated at 4° C. for 3 hrs. Then, the plates were washed with ice-cold assay buffer 3 times. The radioligand binding assay was prepared by adding assay buffer diluted hEBP-DHCR7 membrane at 66.7 µg/ml×150 μl/well into the 96-well compound plate to reach 10 μg membrane per well. Then, the assay buffer diluted [3H]—(S)-6-(2-Methyl-3-(6-(trifluoromethyl)pyridin-3-yl)propyl)-2-thia-6-azaspiro[3.4]octane 2,2-dioxide (Moravek, Cat #MT-1003106) was added at 25 nM×50 μl/well. Following this, the plate was centrifuged at 1000 rpm for 30 secs. The plate was then sealed and agitated at 600 rpm at 22° C. for 5 min, and then incubated at 22° C. for 3 hrs. The incubation was stopped by transferring the binding solution to the pre-treated UniFilter-96 GF/B plate, vacuum filtrated, and then washed four times with ice-cold assay buffer. Following this, the plates were dried at 37° C. for 45 min. The plates were then sealed at the bottom. 40 µl/well of scintillation cocktail was added to the plates. A MicroBeta2 microplate counter was then used to read the plate and analyze the data. For reference and test compounds, the results are expressed as % Inhibition, using the normalization equation: N=100−100×(U−C2)/(C1−C2), where U is the unknown value, C1 is the average of high controls, and C2 is the average value of low controls.

| EC50 [1] [nM] | EC50 (EpiSC-derived OPCs) [nM] | Ki [2] [nM] | SMILES | fold decrease in activity in the mouse zymostenol assay ([1]; as compared to compound 29*) [fold] | fold decrease in activity in the OPC assay (EpiSC-derived OPCs; as compared to compound 29*) [fold] | fold decrease in activity in the OPC assay (EpiSC-derived OPCs; as compared to compound 171) [fold] |
| --- | --- | --- | --- | --- | --- | --- |
| 15.6 | 75 |  | CC(C)n1nc(-c2cnc(N)c(C(F)(F)F)c2)cc1[C@H]1[C@@H]2C[C@H](N3CCCOCC3)C[C@@H]21 [Compound C, reference compound] | 4.9 | 3.8 |  |
| 4.76 | 21.6 |  | CC(C)n1nc(-c2cc(C(F)(F)F)ncn2)cc1[C@H]1[C@@H]2C[C@@H](N3CCOC[C@H]3C)C[C@@H]21 [Compound 202, (R)-4-((1R,3s,5S,6R)-6-(1-isopropyl-3-(6-(trifluoromethyl)pyrimidin-4-yl)-1H-pyrazol-5-yl)bicyclo[3.1.0]hexan-3-yl)-3-methylmorpholine] |  |  |  |
| 5.88 | 16.6 |  | CC(C)n1nc(-c2cncc(C(F)(F)F)c2)cc1[C@H]1[C@@H]2C[C@H](N3CCOCC3)C[C@@H]21 [Compound 171, 4-((1R,3r,5S,6r)-6-(1-Isopropyl-3-(5-(trifluoromethyl)pyridin-3-yl)-1H-pyrazol-5-yl)bicyclo[3.1.0]hexan-3-yl)morpholine] |  |  |  |
|  | 692 |  | CC(C)n1nc(-c2cnc(N)c(C(F)(F)F)c2)cc1[C@H]1[C@@H]2C[C@H](N3CCOCC3)C[C@@H]21 [Compound B, reference compound] |  |  | 41.7 |
| 4.25 |  | 12.2 | CC(C)n1nc(-c2cnc(F)c(C(F)(F)F)c2)nc1[C@H]1CC[C@H](N2CCOCC2)C1 (single isomer, unassigned) [Compound 159*] |  |  |  |
| 5.38 |  | 33.8 | CC(C)n1nc(-c2cnc(F)c(C(F)(F)F)c2)nc1[C@H]1CC[C@@H](N2CCOCC2)C1 (single isomer, unassigned) [Compound 158*] |  |  |  |

Continued, compound first:

| SMILES | EC50 [1] [nM] | EC50 (EpiSC-derived OPCs) [nM] | Ki [2] [nM] | fold decrease in activity in the mouse zymostenol assay ([1]; as compared to compound 29*) [fold] | fold decrease in activity in the OPC assay (EpiSC-derived OPCs; as compared to compound 29*) [fold] | fold decrease in activity in the OPC assay (EpiSC-derived OPCs; as compared to compound 171) [fold] |
| --- | --- | --- | --- | --- | --- | --- |
| CC(C)n1nc(-c2cccc(C(F)(F)F)c2)nc1[C@H]1[C@@H]2C[C@H](N3CCCOCC3)C[C@@H]21 [Compound 13, 4-((1R,3r,5S,6r)-6-(1-isopropyl-3-(3-(trifluoromethyl)phenyl)-1H-1,2,4-triazol-5-yl)bicyclo[3.1.0]hexan-3-yl)-1,4-oxazepane] | 1.48 | 3.18 |  |  |  |  |
| CC(C)n1nc(-c2ccc(C(F)(F)F)nc2)nc1[C@@H]1CC[C@@H](N2CCCOCC2)C1 [Compound 3, 4-((1R,3R)-3-(1-isopropyl-3-(6-(trifluoromethyl)pyridin-3-yl)-1H-1,2,4-triazol-5-yl)cyclopentyl)-1,4-oxazepane] | 39.5 |  | 32.4 |  |  |  |
| CC(C)n1nc(-c2cnc(C(F)(F)F)nc2)cc1[C@H]1CC[C@H](N2CCO[C@@H](CF)C2)C1 (single isomer, unassigned) [Compound 130*] | 619 |  | 392 |  |  |  |
| CC(C)n1nc(-c2cnc(C(F)(F)F)nc2)cc1[C@H]1[C@@H]2C[C@@H](N3CCOC[C@H]3C)C[C@@H]21 [Compound 96, (R)-4-((1R,3s,5S,6R)-6-(1-Isopropyl-3-(2-(trifluoromethyl)pyrimidin-5-yl)-1H-pyrazol-5-yl)bicyclo[3.1.0]hexan-3-yl)-3-methylmorpholine] | 928 |  | 631 |  |  |  |
| CC(C)n1nc(-c2cncc(C(F)(F)F)c2)nc1[C@@H]1CC[C@H](N2CCOCC2)C1 (single isomer, unassigned) [Compound 117*] | 13.5 |  | 34.6 |  |  |  |
| CC(C)n1nc(-c2cncc(C(F)(F)F)c2)nc1[C@@H]1CC[C@@H](N2CCOCC2)C1 (single isomer, unassigned) [Compound 115*] | 97.2 |  | 35 |  |  |  |
| CC(C)n1nc(-c2ccc(C(F)(F)F)nc2)cc1[C@H]1CC[C@H](N2CCN(CCO)CC2)C1 (single isomer, unassigned) [88*] | 627 |  | 88.2 |  |  |  |
| CC(C)n1nc(-c2cccc(C(F)(F)F)n2)cc1[C@H]1[C@@H]2C[C@H](N3CCN(C4CCC4)CC3)C[C@@H]21 [Compound 85, 1-Cyclobutyl-4-((1R,3r,5S,6r)-6-(1-isopropyl-3-(6-(trifluoromethyl)pyridin-2-yl)-1H-pyrazol-5-yl)bicyclo[3.1.0]hexan-3-yl)piperazine] | 279 |  | 472 |  |  |  |
| CC(C)n1nc(-c2cnc(C(F)(F)F)nc2)nc1[C@@H]1CC[C@@H](N2CCO[C@H](C)C2)C1 [Compound 149, (R)-4-((1R,3R)-3-(1-Isopropyl-3-(2-(trifluoromethyl)pyrimidin-5-yl)-1H-1,2,4-triazol-5-yl)cyclopentyl)-2-methylmorpholine] | 129 |  | 68.3 |  |  |  |
| CC(C)n1nc(-c2cccc(C(F)(F)F)n2)cc1[C@H]1[C@@H]2C[C@@H](N3CCN(C4CCC4)CC3)C[C@@H]21 [Compound 84, 1-Cyclobutyl-4-((1R,3s,5S,6r)-6-(1-isopropyl-3-(6-(trifluoromethyl)pyridin-2-yl)-1H-pyrazol-5-yl)bicyclo[3.1.0]hexan-3-yl)piperazine] | 3.49 |  | 27.8 |  |  |  |
| COCCN1CCN([C@H]2CC[C@H](c3cc(-c4ccc(C(F)(F)F)nc4)nn3C(C)C)C2)CC1 (single isomer, unassigned) [92*] | 252 |  | 77.6 |  |  |  |
| CC(C)n1nc(-c2cnc(C(F)(F)F)nc2)nc1[C@@H]1CC[C@H](N2CCO[C@@H](C)C2)C1 [Compound 150, (S)-4-((1S,3R)-3-(1-Isopropyl-3-(2-(trifluoromethyl)pyrimidin-5-yl)-1H-1,2,4-triazol-5-yl)cyclopentyl)-2-methylmorpholine] | 946 |  | 3540 |  |  |  |
